Marks after values point to notes of the source that are not given here.
Assays:
[1] = tested on: acute orchiectomized (ORX) rabbit model; experiment: Palmitate:stearate ratios in tears, Meibomian glands and harderian glands, Example 4; format: in vivo; details: for Palmitate:stearate ratios in Meibomian glands / Palmitate:stearate ratios in harderian glands: ORX rabbits, topical 2.5 mg/kg once daily 14 d, mean
From the text: The goal of this study was to compare the effects of Compound 1 and Compound 2, two tissue selective SARMs with differing androgenic potential, in modulating tear composition in an acute orchiectomized (ORX) rabbit model.
Twenty New Zealand white rabbits weighing approximately 3 lbs were allowed to acclimate for two weeks before the start of the study Animals were weighed on day 0 of the study, randomized according to body weight and allotted to the following dose groups:
Surgeries for the study were staggered to limit the maximum number of surgeries per day to six. One animal from each group was entered into the study every day and either sham or orchiectomy was performed as described below Animals were premedicated with glycopyrrolate (0.02 mg/kg) and anesthesia was induced with a combination of ketamine (15 mg/kg): medetomidine (0.25 mg/kg). Anesthesia was maintained with isoflurane (1 liter/hr). ORX was performed using a scrotal incision. For the sham operated animals, the scrotal sac was incised and skin closed using tissue glue Animals were revived from anesthesia using atipamezole (1 mg/kg) SQ. Analgesia was provided with buprenorphine (0.05 mg/kg).
Immediately after the animals had recovered from anesthesia, they were dosed with the appropriate test articles as indicated above. Drug dosing was done once daily for 14 d. Blood samples were collected at 30, 60, 120, 240 and 1440 minutes after dose administration on day 11 for pharmacokinetic analyses. Plasma was separated for HPLC analysis of parent drug concentrations. Tears were collected using Schirmer tear strips (Alcon, Tex.) on day 0 before surgery and 24 hours after the last administration of drug (day 15). The tears were stored at −80° C. until shipment for analysis. Lipids were hydrolyzed, extracted from the Schirmer strips, derivatized, and subjected to GC-FID to evaluate the lipid composition. The samples were evaluated for the presence of 28 saturated and unsaturated fatty acids that included methyl caprate (C10:0), methyl laurate (C12:0), methyl 11-dodecenoate (C12:1), methyl myristate (C14:0), methyl myristoleate (C14:1), methyl palmitate (C16:0), methyl palmitoleate (C16:1), methyl stearate (C18:0), methyl oleate (C18:1), methyl vaccenate (C18:1), methyl linoleate (C18:2), methyl gamma linoleate (C18:3), methyl linoleate (C18:3), methyl arachidate (C20:0), methyl 11-eicosenoate (C20:1), methyl 11,14 eicosadinoate (C20:2), methyl 8,11,14 eicosatrienoate (C20:3), methyl eicosapentaenoate (C20:5), methyl behenate (C22:0), methyl erucate (C22:1), methyl 13,16 docosaenoate (C22:2), methyl docosatetraenoate (C22:4), methyl docosapentaenoate (C22:5), methyl docosahexaenoate (C22:6), methyl lignocerate (C24:0), and methyl nervonate (C24:1). Area under the curve for each individual peak was determined using the GC ChemStation software. To normalize for the tear content, the lipid composition was expressed as a ratio of the lipid that was most affected by castration (palmitate) to one which remained relatively constant (stearate).
At the end of the study, the animals were euthanatized. The left harderian and Meibomian glands were collected for lipid analysis and snap frozen using an ethanol:dry ice bath. Samples were stored at −80° C. until shipment for analysis. The right eyelids were embedded in OCT medium and shipped to Paragon Biosciences (Washington D.C.) for histology and Oil-red-O quantification of lipids. Images of three separate fields were taken from each eyelid at random and the amount of cells staining red in each field was scored using commercially available software. A scoring scheme was adopted with a scale of 0-4 to evaluate the staining intensities with 0=<1% cells stained, 1+ for 2-5% of cells stained, 2+=6-10% stain, 3+=11-20% staining, 4+ for >21% cells stained.

[2] = Plasma concentration of Compound 2 after topical or subcutaneous dosing, Example 3; format: in vivo, rabbit; details: one hour after last dose, LCMS
Protocol: Drug dosing was done once daily for 14 days. Blood was collected at 60 minutes post administration of the last dose of drug and plasma separated for HPLC analysis of parent drug concentrations.
To normalize for the tear content, the lipid composition was expressed as a ratio of the lipid that was most affected by castration (palmitate) to one which remained relatively constant (stearate). Blood was also collected on day 15 (24 hours after last drug administration) of the study, plasma separated and analyzed for Compound 2.
Systemic exposures after topical and subcutaneous administration were determined in peripheral blood samples collected one hour after drug administration on the last day of the study. Plasma concentrations of Compound 2 were measured using LCMS. Mean plasma concentrations of Compound 2 following topical administration were 1177±398.72 nM, while mean levels were 1210±311.93 nM in animals that received subcutaneous (SQ) doses.

C[C@](O)(COc1ccc(C#N)cc1)C(=O)Nc1ccc(C#N)c(C(F)(F)F)c1 [Compound 1, (S)—N-(4-Cyano-3-(trifluoromethyl)phenyl)-3-(4-cyanophenoxy)-2-hydroxy-2-methylpropanamide]
Palmitate:stearate ratios in Meibomian glands [1]: 4.07^b | Palmitate:stearate ratios in harderian glands [1]: 5.1 | Change of palmitate:stearate ratio in Meibomian glands ([1]; topical 2.5 mg/kg): two fold increase | Change of palmitate:stearate ratio in harderian glands compared to control animals ([1]; topical 2.5 mg/kg): no change

C[C@](O)(COc1ccc(C#N)c(F)c1)C(=O)Nc1ccc(C#N)c(C(F)(F)F)c1 [Compound 2, (S)—N-(4-cyano-3-(trifluoromethyl)phenyl)-3-(4-cyano-3-fluorophenoxy)-2-hydroxy-2-methylpropanamide]
Palmitate:stearate ratios in Meibomian glands [1]: 2.82 | Palmitate:stearate ratios in harderian glands [1]: 7.76 | Change of palmitate:stearate ratio in Meibomian glands ([1]; topical 2.5 mg/kg): mild increase | Change of palmitate:stearate ratio in harderian glands compared to control animals ([1]; topical 2.5 mg/kg): significant increase | Increase of tear palmitate:stearate ratio over intact vehicle treated animals ([1]; topical 2.5 mg/kg): ~1.5 fold | Increase of tear palmitate:stearate ratio relative to ORX vehicle-treated animals ([1]; topical 2.5 mg/kg): approximately 2.5 times | concentration at 1 h ([2]; rabbit, plasma, subcutaneous 2.5 mg/kg): 1.21 ± 0.312 µM | concentration at 1 h ([2]; rabbit, plasma, topical 2.5 mg/kg): 1.18 ± 0.399 µM | concentration at 1 h ([2]; subcutaneous 2.5 mg/kg): 1.21 µM | concentration at 1 h ([2]; topical 2.5 mg/kg): 1.177 µM

From patent US8791158B2, “Methods of treating meibomian gland dysfunction” (GTX, Inc., priority 2010, dated 2014)
